Data reported in patent US12509460B2 (Skyhawk Therapeutics, Inc., priority 2019, dated 2025).
Like-named read-outs stand apart in the source and are kept apart here.

What was measured:
[1] = system: mHTT protein in GM04724 (CAG 70/20) Huntington's disease patient lymphoblast cells; assay: mHTT protein assay, 2B7-MW1 assay via Mesoscale Discovery (MSD); format: cell-based, human
Summary of the method: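 Patient lymphoblasts treated 48 h with compound from 10 μM to 0.6 nM. mHTT quantified by MSD 2B7-MW1 immunoassay, whose signal depends on polyQ expansion and HTT size. Viability measured on a replicate plate by CellTiter Glo.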

[2] = system: SMN protein in spinal muscular atrophy (SMA) patient fibroblasts (GM03813, Coriell); assay: SMN protein assay, Mesoscale Discovery (MSD); format: cell-based, human; details: for EC50: read-out: SMN2 protein EC50
Summary of the method: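 SMA patient fibroblasts (GM03813) seeded at 7000 cells/well and exposed to compound at 2.5 μM to 0.6 nM for 48 hours. Lysates assayed for SMN by MSD immunoassay, with absolute SMN amount calculated from a per-plate SMN standard curve (1 μg/ml to 19.5 pg/ml).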

[3] = system: MDR1-MDCK cell monolayers; details: dog, MDCK-MDR1, 120 min, 5 μM, pH 7.4
MDR1 (P-gp) = assay: in vitro; details: dog, MDCK-MDR1, pH 7.4
MDR1 = assay: in vitro; details: dog, MDCK-MDR1, pH 7.4
[4] = GM04724 (CAG 70/20) Huntington's disease patient lymphoblasts
[5] = SMA patient fibroblasts (GM03813), 48 hours
[6] = GM04724 Huntington's disease patient lymphoblasts
[7] = SMA patient fibroblasts GM03813, 48 hours, MSD

Row | SMILES | mHTT protein EC50 [1, 4] | SMN2 protein EC50 [2, 5] | MDCK-MDR1: % Recov A-B [3] [%] | MDCK-MDR1: % Recov B-A [3] [%] | Papp A→B at 120 min, 5 μM (MDR1 (P-gp)) [×10⁻⁶ cm/s] | Papp B→A at 120 min, 5 μM (MDR1 (P-gp)) [×10⁻⁶ cm/s] | efflux ratio at 120 min, 5 μM (MDR1) | mHTT protein EC50 [1, 6] | EC50 [2, 7] [nM] | SMN2 protein EC50 [2, 7] | EC50 [2, 5] [nM] | EC50 [1, 6] [nM]
1 | CN(C)C(=O)c1cc(O)c(-c2ccc(N(C)[C@H]3C[C@@H]4CC[C@H]([C@H]3F)N4C)nn2)cc1F (single isomer, unassigned) [Compound 104B] | E (501 ≤ E ≤ 10.000) | E (501 ≤ E ≤ 10.000) | 99 | 105 | 0.89 | 50.2 | 56 | – | – | – | – | –
2 | CN(c1ccc(-c2cc(C#N)ccc2O)nn1)[C@@H]1C[C@H]2CC[C@H](N2)[C@@H]1F (single isomer, unassigned) [Compound 70A] | – | – | 86 | 89 | 3.17 | 60.2 | 19 | E (501 ≤ E ≤ 10.000) | 101 to 500 | – | – | –
3 | CN(c1ccc(-c2ccc(C(F)F)cc2O)nn1)[C@@H]1C[C@H]2CC[C@H](N2)[C@@H]1F (single isomer, unassigned) [Compound 120A] | E (501 ≤ E ≤ 10.000) | E (501 ≤ E ≤ 10.000) | 76 | 74 | 4.59 | 34.8 | 8 | – | – | – | – | –
4 | CN(c1ccc(-c2cc3ccn(C)c(=O)c3s2)nn1)[C@H]1C[C@@H]2CC[C@@H](N2)[C@H]1F (single isomer, unassigned) [Compound 67B] | – | – | 91 | 96 | 0.47 | 40.9 | 86 | E (501 ≤ E ≤ 10.000) | – | E (501 ≤ E ≤ 10.000) | – | –
5 | Cc1nc2cc(-c3ccc(N(C)[C@@H]4C[C@H]5CC[C@@H]([C@@H]4F)N5C)nn3)c(O)cc2c(=O)n1CC(F)(F)F (single isomer, unassigned) [Compound 130A] | E (501 ≤ E ≤ 10.000) | E (501 ≤ E ≤ 10.000) | 105 | 116 | 0.67 | 75.4 | 113 | – | – | – | – | –
6 | CCc1cn(-c2ccc(-c3ccc(N(C)[C@@H]4C[C@H]5CC(F)(F)[C@@H](C4)N5)nn3)c(O)c2)nn1 (single isomer, unassigned) [Compound 64A] | – | – | 64 | 78 | 7.18 | 52.2 | 7 | E (501 ≤ E ≤ 10.000) | – | E (501 ≤ E ≤ 10.000) | – | –
7 | CN(C)C(=O)c1cc2cc(O)c(-c3ccc(N(C)[C@@H]4C[C@H]5CC[C@@H]([C@@H]4F)N5C)nn3)cc2o1 (single isomer, unassigned) [Compound 106A] | E (501 ≤ E ≤ 10.000) | E (501 ≤ E ≤ 10.000) | 95 | 92 | 1.87 | 63.1 | 34 | – | – | – | – | –
8 | CNC(=O)c1ccc(-c2ccc(N(C)[C@@H]3C[C@H]4CC[C@H](N4)[C@@H]3F)nn2)c(O)c1 (single isomer, unassigned) [Compound 77A] | – | – | 104 | 110 | 0.29 | 36.3 | 124 | E (501 ≤ E ≤ 10.000) | 101 to 500 | – | – | –
9 | CN(c1ccc(-c2cc3ncn(CC(F)(F)F)c(=O)c3cc2O)nn1)[C@H]1C[C@@H]2CC[C@H]([C@H]1F)N2C (single isomer, unassigned) [Compound 108B] | E (501 ≤ E ≤ 10.000) | E (501 ≤ E ≤ 10.000) | 102 | 101 | 0.98 | 59.5 | 61 | – | – | – | – | –
10 | CN(c1ccc(-c2cc3ncn(CC(F)(F)F)c(=O)c3cc2O)nn1)[C@H]1C[C@@H]2CCC[C@H]([C@H]1F)N2C (single isomer, unassigned) [Compound 109B] | E (501 ≤ E ≤ 10.000) | E (501 ≤ E ≤ 10.000) | 74 | 87 | 2.39 | 63.3 | 26 | – | – | – | – | –
11 | Cc1cc(=O)c2cc(O)c(-c3ccc(N(C)[C@@H]4C[C@H]5CC[C@@H]([C@@H]4F)N5C)nn3)cc2o1 [Compound 99A, 7-(6-(((1S,2S,3R,5R)-2-fluoro-8-methyl-8-azabicyclo[3.2.1]octan-3-yl)(methyl)amino)pyridazin-3-yl)-6-hydroxy-2-methyl-4H-chromen-4-one] | E (501 ≤ E ≤ 10.000) | – | 114 | 91 | 2 | 36.3 | 18 | – | – | – | 101 to 500 | –
12 | CN(c1ccc(-c2cnc(C#N)cc2O)nn1)[C@H]1C[C@@H]2CC[C@@H](N2)[C@H]1F (single isomer, unassigned) [Compound 71B] | – | – | 90 | 89 | 5.04 | 20.9 | 4 | E (501 ≤ E ≤ 10.000) | – | E (501 ≤ E ≤ 10.000) | – | –
13 | CN(C)C(=O)c1cc(O)c(-c2ccc(N(C)[C@@H]3C[C@H]4CC[C@@H]([C@@H]3F)N4C)nn2)cc1F (single isomer, unassigned) [Compound 104A] | E (501 ≤ E ≤ 10.000) | E (501 ≤ E ≤ 10.000) | 106 | 105 | 1.23 | 43.1 | 35 | – | – | – | – | –
14 | Cc1nc2cc(O)c(-c3ccc(N(C)[C@@H]4C[C@H]5CC[C@H](N5)C4F)nn3)cc2o1 (stereo in doubt) [Compound 40A, 6-(6-(((1S,2R,3R,5R)-2-fluoro-8-azabicyclo[3.2.1]octan-3-yl)(methyl)amino)pyridazin-3-yl)-2-methylbenzo[d]oxazol-5-ol] | – | – | 62 | 92 | 3.68 | 57.9 | 16 | – | – | E (501 ≤ E ≤ 10.000) | – | 101 to 500
15 | CN(c1ccc(-c2ccc(Oc3nccn3C)cc2O)nn1)[C@@H]1C[C@H]2CC[C@H](N2)[C@@H]1F (single isomer, unassigned) [Compound 123A] | E (501 ≤ E ≤ 10.000) | E (501 ≤ E ≤ 10.000) | 97 | 102 | 0.76 | 59.7 | 79 | – | – | – | – | –
16 | O=c1c2cc(O)c(-c3ccc(N(C4CC4)[C@@H]4C[C@H]5CC[C@H](N5)[C@@H]4F)nn3)cc2ncn1CC(F)(F)F (single isomer, unassigned) [Compound 60A] | – | – | 94 | 100 | 0.44 | 65.9 | 151 | E (501 ≤ E ≤ 10.000) | – | E (501 ≤ E ≤ 10.000) | – | –
